Laboratory results reported in ChEMBL document CHEMBL6103619, “Discovery of a Novel CRBN-Recruiting cGAS PROTAC Degrader for the Treatment of Ulcerative Colitis” (J Med Chem, 2025).
Active and inactive are the calls of the source. No cut-off for these calls is given here.

Tests used:
[1] = target: T1, Protein cereblon/Cyclic GMP-AMP synthase (Mus musculus) (UniProt Q8C6L5+Q8C7D2); test: PROTAC activity at CRBN/cGAS in mouse RAW264.7 cells assessed as induction of cGAS degradation by measuring maximal efficacy at 20 uM preincubated with compound for 40 hrs followed by HT-DNA stimulation and measured after 8 hrs by Western blot analysis relative to control; type: cell-based; conditions: time 48.0 hrs
RAW264.7 [2] = test: Upregulation of IFNB mRNA expression level in mouse Trex1-/- RAW264.7 cells at 5 to 20 uM incubated for 24 hrs by qRT-PCR analysis; type: functional, cell-based; conditions: dose 5-20 µM
[3] = target: T1, Protein cereblon/Cyclic GMP-AMP synthase (Mus musculus); test: (§1) In vivo inhibition of cGAS signaling pathway in DSS-induced ulcerative colitis C57BL/6 mouse model assessed as reduction in STING phosphorylation level in colon preadministered with DSS for 7 days followed by replacement with ultrapure water for 3 days with subsequent intraperitoneal compound administration starting from day 4 to 10 and measured on day 11 by Western blot analysis; type: functional, organism-based; conditions: dose 20-50 mg/kg/day, route ip, time 8.0 day
RAW264.7 [4] = test: Inhibition of ds-DNA induced cGAS-STING signaling pathway in mouse RAW264.7 cells assessed as reduction in IRF3 phosphorylation preincubated with compound for 40 hrs followed by HT-DNA addition and measured after 8 hrs by Western blot analysis; type: cell-based; conditions: dose 0.7-20 µM, time 48.0 hrs
[5] = target: T1, Protein cereblon/Cyclic GMP-AMP synthase (Mus musculus); test: as §1, with “TBK1” for “STING”; type: functional, organism-based; conditions: dose 20-50 mg/kg/day, route ip, time 8.0 day
THP-1 [6] = test: Downregulation of IFNB mRNA expression level in HSV-1-induced human THP-1 cells at 20 uM preincubated with compound for 12 hrs followed by HSV1 addition and measured after 8 hrs by RT-qPCR analysis; type: functional, cell-based; conditions: time 20.0 hrs
[7] = target: Protein cereblon/Cyclic GMP-AMP synthase (Mus musculus, UniProt Q8C6L5+Q8C7D2); test: (§2) PROTAC activity at CRBN/cGAS in mouse RAW264.7 cells assessed as induction of cGAS degradation preincubated with compound for 40 hrs followed by HT-DNA stimulation and measured after 8 hrs by Western blot analysis; type: cell-based
[8] = target: T1, Protein cereblon/Cyclic GMP-AMP synthase (Mus musculus); test: as §2; type: cell-based; conditions: time 48.0 hrs
Mus musculus [9] = test: (§3) Anti-inflammatory activity in DSS-induced ulcerative colitis C57BL/6 mouse model assessed as reduction in IFNB mRNA level in colon at 20 to 50 mg/kg/day, ip preadministered with DSS for 7 days followed by replacement with ultrapure water for 3 days with subsequent compound administration starting from day 4 to 10 and measured on day 11 by qRT-PCR analysis; type: functional, organism-based; conditions: dose 20-50 mg/kg/day, time 8.0 day
[10] = MRT (0 to 24 hrs) in male C57BL/6 mouse at 1 mg/kg, iv measured after 24 hrs by LC-MS/MS analysis; type: ADME, organism-based; conditions: in vivo
[11] = target: Protein cereblon/Cyclic GMP-AMP synthase (Homo sapiens, UniProt Q96SW2+Q8N884); test: PROTAC activity at CRBN/cGAS in human THP-1 cells assessed as induction of cGAS degradation at 10 uM preincubated with 1-(6,7-dichloro-9-(1-methyl-1H-pyrazol-3-yl)-1,3,4,5-tetrahydro-2H-pyrido[4,3-b]indol-2-yl)-2-hydroxyethan-1-one for 2 hrs followed by compound addition and measured after 48 hrs by Western blot analysis; type: cell-based
[12] = Half-life in male C57BL/6 mouse at 1 mg/kg, iv measured after 24 hrs by LC-MS/MS analysis; type: ADME, organism-based; conditions: in vivo
THP-1 [13] = test: Downregulation of IFNB mRNA expression level in HT-DNA-induced human THP-1 cells at 20 uM preincubated with compound for 12 hrs followed by HT-DNA addition and measured after 8 hrs by RT-qPCR analysis; type: functional, cell-based; conditions: time 20.0 hrs
[14] = Cmax in male C57BL/6 mouse at 20 mg/kg, ip measured after 24 hrs by LC-MS/MS analysis; type: ADME, organism-based; conditions: in vivo
[15] = target: Cyclic GMP-AMP synthase (Homo sapiens) (UniProt Q8N884); test: Inhibition of cGAMP-induced cGAS signaling pathway in human THP1-Lucia ISG cells at 0.2 to 20 uM preincubated with compound for 2 hrs followed by cGAMP addition and measured after 24 hrs by QUANTI-Luc luciferase reagent based assay; type: cell-based; conditions: dose 0.2-20 µM, time 26.0 hrs
RAW264.7 [16] = test: Cytotoxicity against mouse RAW264.7 cells assessed as reduction in cell viability upto 60 uM incubated for 48 hrs by CCK8 assay; type: toxicity, cell-based; conditions: raw264.7, 48 h
Mus musculus [17] = test: as §3, with “IL-6 secretion” for “IFNB mRNA level”, “ELISA” for “qRT-PCR analysis”; type: functional, organism-based; conditions: dose 20-50 mg/kg/day, time 8.0 day
Mus musculus [18] = test: as §3, with “IL-6” for “IFNB”; type: functional, organism-based; conditions: dose 20-50 mg/kg/day, time 8.0 day
RAW-Lucia ISG = test: Potency index, ratio of 1-(6,7-dichloro-9-(1-methyl-1H-pyrazol-3-yl)-1,3,4,5-tetrahydro-2H-pyrido[4,3-b]indol-2-yl)-2-hydroxyethan-1-one IC50 to test compound IC50 for inhibition of dsDNA-induced cGAS signaling pathway in mouse RAW-Lucia ISG cells preincubated with compound for 24 hrs followed by HT-DNA addition and measured after 24 hrs by QUANTI-Luc luciferase reagent based assay; type: cell-based; conditions: time 48.0 hrs
Mus musculus [19] = test: as §3, with “decrease” for “reduction”, “body weight loss” for “IFNB mRNA level in colon”, “11” for “11 by qRT-PCR analysis”; type: functional, organism-based; conditions: dose 20-50 mg/kg/day, time 8.0 day
RAW264.7 [20] = test: Cytotoxicity against mouse RAW264.7 cells assessed as reduction in cell viability at >30 uM incubated for 48 hrs by CCK8 assay; type: toxicity, cell-based; conditions: raw264.7, 48 h
[21] = Cytotoxicity against mouse RAW-Lucia ISG cells assessed as reduction in cell viability at >30 uM incubated for 48 hrs by CCK8 assay; type: toxicity, cell-based
THP-1 [22] = test: Downregulation of CXCL10 mRNA expression in human THP-1 cells preincubated with compound for 40 hrs followed by HT-DNA addition and measured after 8 hrs by qRT-PCR analysis; type: functional, cell-based; conditions: dose 1.25-10 µM, time 48.0 hrs
RAW264.7 [23] = test: Inhibition of ds-DNA induced cGAS-STING signaling pathway in mouse RAW264.7 cells assessed as reduction in STING phosphorylation preincubated with compound for 40 hrs followed by HT-DNA addition and measured after 8 hrs by Western blot analysis; type: cell-based; conditions: dose 0.7-20 µM, time 48.0 hrs
[24] = Drug distribution in male C57BL/6 mouse colon at 20 mg/kg, ip measured after 2 to 24 hrs by LC-MS/MS analysis; type: ADME, organism-based; conditions: in vivo, time 2-24 hrs
RAW264.7 [25] = test: Downregulation of IFNB mRNA expression in mouse RAW264.7 cells preincubated with compound for 40 hrs followed by HT-DNA addition and measured after 8 hrs by qRT-PCR analysis; type: functional, cell-based; conditions: dose 2.5-20 µM, time 48.0 hrs
THP-1 [26] = test: Downregulation of IFNB mRNA expression level in cGAMP-induced human THP-1 cells at 20 uM preincubated with compound for 12 hrs followed by cGAMP addition and measured after 8 hrs by RT-qPCR analysis; type: functional, cell-based; conditions: time 20.0 hrs
Mus musculus [27] = test: as §3, with “improvement” for “reduction in IFNB mRNA level”, “colon pathology” for “colon”, “H and E staining based” for “qRT-PCR”; type: functional, organism-based; conditions: dose 20-50 mg/kg/day, time 8.0 day
[28] = Cytotoxicity against human THP1-Lucia ISG cells assessed as reduction in cell viability upto 60 uM incubated for 48 hrs by CCK8 assay; type: toxicity, cell-based
THP-1 [29] = test: Inhibition of cGAMP production in human THP-1 cells at 5 to 20 uM preincubated with compound for 36 hrs followed by HT-DNA addition and measured after 6 hrs by LC-MS analysis; type: functional, cell-based; conditions: dose 5-20 µM, time 42.0 hrs

T1 sequence (Q8C6L5 whole entry, looked up): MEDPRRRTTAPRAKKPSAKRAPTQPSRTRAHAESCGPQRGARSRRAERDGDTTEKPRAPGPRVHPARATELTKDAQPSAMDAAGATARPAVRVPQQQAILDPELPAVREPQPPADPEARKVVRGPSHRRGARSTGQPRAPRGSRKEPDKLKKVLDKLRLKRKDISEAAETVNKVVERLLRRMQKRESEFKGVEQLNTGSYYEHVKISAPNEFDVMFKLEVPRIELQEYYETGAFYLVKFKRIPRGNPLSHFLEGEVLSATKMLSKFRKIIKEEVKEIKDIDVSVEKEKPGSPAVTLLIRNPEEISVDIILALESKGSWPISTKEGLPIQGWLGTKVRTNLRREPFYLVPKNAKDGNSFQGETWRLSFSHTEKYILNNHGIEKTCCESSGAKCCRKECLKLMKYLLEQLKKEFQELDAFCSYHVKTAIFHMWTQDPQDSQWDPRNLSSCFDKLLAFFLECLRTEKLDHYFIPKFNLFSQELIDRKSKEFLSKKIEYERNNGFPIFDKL
T1 sequence (Q8C7D2 whole entry, looked up): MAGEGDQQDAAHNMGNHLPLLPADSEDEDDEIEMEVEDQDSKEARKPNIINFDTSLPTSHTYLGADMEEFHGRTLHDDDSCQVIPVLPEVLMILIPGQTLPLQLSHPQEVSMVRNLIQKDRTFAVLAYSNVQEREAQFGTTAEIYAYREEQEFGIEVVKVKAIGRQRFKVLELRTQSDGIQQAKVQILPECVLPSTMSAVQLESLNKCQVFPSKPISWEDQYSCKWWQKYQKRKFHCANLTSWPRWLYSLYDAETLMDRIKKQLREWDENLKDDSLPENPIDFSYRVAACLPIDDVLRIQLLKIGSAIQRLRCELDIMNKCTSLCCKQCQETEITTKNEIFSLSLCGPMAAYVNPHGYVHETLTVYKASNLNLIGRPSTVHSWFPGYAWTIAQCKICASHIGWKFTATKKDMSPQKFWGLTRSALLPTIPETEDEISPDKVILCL
Cyclic GMP-AMP synthase (Homo sapiens), sequence (Q8N884 whole entry): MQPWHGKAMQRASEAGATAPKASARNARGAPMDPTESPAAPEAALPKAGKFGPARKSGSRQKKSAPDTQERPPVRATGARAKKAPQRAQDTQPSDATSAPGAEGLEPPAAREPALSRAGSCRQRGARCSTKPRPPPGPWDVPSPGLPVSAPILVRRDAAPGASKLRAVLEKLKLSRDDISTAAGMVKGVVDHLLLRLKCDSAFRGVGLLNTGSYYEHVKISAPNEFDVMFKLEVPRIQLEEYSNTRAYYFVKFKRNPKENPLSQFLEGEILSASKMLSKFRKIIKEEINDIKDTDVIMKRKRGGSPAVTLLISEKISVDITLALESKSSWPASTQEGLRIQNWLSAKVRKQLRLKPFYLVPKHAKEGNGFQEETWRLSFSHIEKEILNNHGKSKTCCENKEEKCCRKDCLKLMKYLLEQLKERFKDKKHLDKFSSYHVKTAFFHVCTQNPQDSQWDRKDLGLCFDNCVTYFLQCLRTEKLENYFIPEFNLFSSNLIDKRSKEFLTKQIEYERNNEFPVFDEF
Protein cereblon/Cyclic GMP-AMP synthase (Homo sapiens, UniProt Q96SW2+Q8N884), sequence (Q8N884 whole entry, looked up): as the sequence (Q8N884 whole entry) above
Protein cereblon/Cyclic GMP-AMP synthase (Homo sapiens, UniProt Q96SW2+Q8N884), sequence (Q96SW2 whole entry, looked up): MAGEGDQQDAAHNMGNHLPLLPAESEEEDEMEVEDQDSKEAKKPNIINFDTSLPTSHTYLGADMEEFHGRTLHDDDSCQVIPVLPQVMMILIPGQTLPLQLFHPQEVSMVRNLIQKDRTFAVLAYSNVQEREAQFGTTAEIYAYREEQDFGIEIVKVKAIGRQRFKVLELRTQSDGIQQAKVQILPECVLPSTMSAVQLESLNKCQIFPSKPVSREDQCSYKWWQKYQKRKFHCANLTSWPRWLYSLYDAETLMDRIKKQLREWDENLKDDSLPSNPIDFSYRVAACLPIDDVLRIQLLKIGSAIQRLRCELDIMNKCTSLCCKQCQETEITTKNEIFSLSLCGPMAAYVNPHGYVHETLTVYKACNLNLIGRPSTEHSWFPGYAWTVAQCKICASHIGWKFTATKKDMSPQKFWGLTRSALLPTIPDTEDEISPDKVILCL
Protein cereblon/Cyclic GMP-AMP synthase (Mus musculus, UniProt Q8C6L5+Q8C7D2), sequence (Q8C6L5 whole entry): as the sequence (Q8C6L5 whole entry, looked up) above
Protein cereblon/Cyclic GMP-AMP synthase (Mus musculus, UniProt Q8C6L5+Q8C7D2), sequence (Q8C7D2 whole entry): as the sequence (Q8C7D2 whole entry, looked up) above

With `Cn1ccc(-c2cc(Cl)c(Cl)c3[nH]c4c(c23)CN(C(=O)CNC(=O)CCCC#Cc2cccc3c2CN(C2CCC(=O)NC2=O)C3=O)CC4)n1` (stereo not given) the Emax [1] was 91.6%, the Activity (RAW264.7 [2]) was “Active” and the inhibition [3] was “Dose-dependent-effect”. The inhibition (RAW264.7 [4]) was “Dose-dependent-effect”, the inhibition [5] was “Dose-dependent-effect” and the Activity (THP-1 [6]) was “Active”. For the same compound, the DC50 [7] was 4.6 µM, the Activity [8] was “Dose-dependent-effect” and the Activity (Mus musculus [9]) was “Active”. The MRT last at 24 h [10] was 0.9 h, the Activity [11] was “inactive” and the half-life [12] was 3 h. The Activity (THP-1 [13]) was “Active”, the Cmax [14] was 248 ng/mL and the inhibition [15] was “inactive”. The Activity (RAW264.7 [16]) was “Non-toxic”, the Activity (Mus musculus [17]) was “Active” and the Activity (Mus musculus [18]) was “Active”. For the same compound, the Ratio IC50 (RAW-Lucia ISG) was 3, the Activity (Mus musculus [19]) was “Active” and the Activity (RAW264.7 [20]) was “Toxic”. The Activity [21] was “Toxic”, the Activity (THP-1 [22]) was “Dose-dependent-effect” and the inhibition (RAW264.7 [23]) was “Dose-dependent-effect”. The Drug uptake [24] was “Active”, the Activity (RAW264.7 [25]) was “Dose-dependent-effect” and the Activity (THP-1 [26]) was “inactive”. The Activity (Mus musculus [27]) was “Active”, the Activity [28] was “Non-toxic” and the inhibition (THP-1 [29]) was “Active”.
